From patent US8598177B2, “Imidazopyridazines as PAR1 inhibitors, production thereof, and use as medicaments” (Sanofi, priority 2008, dated 2013) come the findings set out here.

The structures appear in SMILES notation. Where a name gives a salt, the structure may show the parent alone.

For this assay, the target named is T1, PAR1 (Homo sapiens, UniProt P25116).
T1 construct: endogenous in cells; host or cells: washed platelets prepared from platelet-rich plasma of healthy volunteer donors
T1 sequence (P25116 22-425): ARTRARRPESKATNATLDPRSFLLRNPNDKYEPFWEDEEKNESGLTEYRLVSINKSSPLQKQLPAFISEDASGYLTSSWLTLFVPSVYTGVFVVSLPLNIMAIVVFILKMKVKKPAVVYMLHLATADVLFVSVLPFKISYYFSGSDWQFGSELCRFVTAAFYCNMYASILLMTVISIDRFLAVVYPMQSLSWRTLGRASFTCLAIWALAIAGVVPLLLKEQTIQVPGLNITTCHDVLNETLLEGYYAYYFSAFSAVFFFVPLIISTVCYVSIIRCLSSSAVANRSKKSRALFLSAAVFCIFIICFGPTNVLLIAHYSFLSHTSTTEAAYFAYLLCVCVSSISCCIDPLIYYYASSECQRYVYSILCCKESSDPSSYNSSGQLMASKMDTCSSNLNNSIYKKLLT
Put plainly: Inhibition of PAR1-mediated platelet aggregation induced by TRAP. Type of assay: cell-based. The conditions noted are these: washed platelets from healthy volunteer donors, TRAP (70-100 μM solution) as agonist, 96-well format, AUC at 650 nm, 37° C., 20 minutes. The procedure: PAR1 Determination Method: Inhibition of PAR1-Mediated Platelet Aggregation
The pharmacological testing of the substances took place in platelet aggregation induced by TRAP (thrombin receptor-activating peptide) in 96-well format. For this purpose, blood was taken from healthy volunteer donors in 20 ml syringes containing 2 ml of 3.13% sodium citrate solution. After centrifugation at 150×g for 20 minutes, the platelet-rich plasma (PRP) was separated off and mixed with 1 μl of PGE1 solution (500 μg/ml in ethanol)/ml of PRP. Incubation at room temperature for 5 minutes was followed by centrifugation at 120×g for 15 minutes to remove the leukocytes. The leukocyte-free PRP was transferred in 5 ml portions into 15 ml PP tubes and centrifuged at 360×g for 15 minutes in order to pellet the platelets. The plasma was then decanted off and the platelet sediment from 5 ml of PRP was resuspended in 1 ml of Tyrode's (120 mM NaCl, 2.6 mM KCl, 12 mM NaHCO3, 0.39 mM NaH2PO4×H2O, 10 mM HEPES, 0.35% BSA, 5.5 mM glucose, pH 7.4) and adjusted with Tyrode's to a platelet count of 3×10^5/microliter (4). 13 ml of this cell suspension were then mixed with 866 μL of 10 mM CaCl2 solution, and 120 μL thereof were pipetted into each well of a 96-well plate containing 15 μL of the substance to be tested. After incubation at room temperature in the dark for 30 minutes, 15 μL of a TRAP solution (70-100 μM) were added as agonist, and kinetics were recorded at 650 nm in a SpectraMax 340 at 37° C. for 20 minutes while shaking. The areas under the curves of negative control (Tyrode's/DMSO) and positive control (15 μl of agonist/DMSO) were calculated and the difference was fixed as the 100% value. The substances to be tested were pipetted as serial dilutions in duplicate determination, the AUC was likewise determined for each substance concentration, and the % inhibition of the AUC compared with the control was calculated. On the basis of the % inhibition, the IC50 was calculated by nonlinear regression analysis according to the 4-parameter equation.

As usually defined, the IC50 is the point on the concentration scale where inhibition reaches its midpoint. A low value points to greater potency.

Turning to `CCOc1cc2cn(CC(=O)c3cc(NC(C)=O)cc(S(F)(F)(F)(F)F)c3)c(=N)n2nc1OCC` [Example 1, trifluoroacetic acid salt], the IC50 was determined as 5 nM.

Turning to `CCOc1cc2cn(CC(=O)c3cc(N4CCOCC4)c(OC)c(C(C)(C)C)c3)c(=N)n2nc1OCC` [Example 3, 1-(3-tert-Butyl-4-methoxy-5-morpholin-4-ylphenyl)-2-(2,3-diethoxy-7-iminoimidazo-[1,5-b]pyridazin-6-yl)ethanone as trifluoroacetic acid salt], the IC50 worked out at 4 nM. The compound `COc1nn2c(=N)n(CC(=O)c3cc(N4CCOCC4)c(OC)c(C(C)(C)C)c3)cc2cc1OCC(F)(F)F` [Example 4, 1-(3-tert-Butyl-4-methoxy-5-morpholin-4-ylphenyl)-2-[7-imino-2-methoxy-3-(2,2,2-trifluoroethoxy)imidazo[1,5-b]pyridazin-6-yl]ethanone as trifluoroacetic acid salt] showed an IC50 of 180 nM.
